From patent US8227510B2, “Combine use of pterostilbene and quercetin for the production of cancer treatment medicaments” (Universitat de Valencia, priority 2004, dated 2012)
Marks after values point to notes of the source that are not given here.

What was measured:
[1] = Extravascular (tissue) levels after intravenous administration in mice; type: in vivo; design: unit not given here; conditions: 20 mg/kg i.v.
Procedure: (§1) For the pharmacokinetic studies and for the daily treatment, the mice were administered i.v. (via the jugular vein, where a permanent catheter had previously been fixed by surgical methods; i.v. administration was carried out slowly for 1 minute), and orally (via stomach tube), 20 mg/kg of t-PTER (dissolved in ethanol 0.5 ml/kg of animal weight) or QUER (dissolved in dimethylsulfoxide:saline, 1:0.5 0.15 ml/kg of weight). In general, the compositions based on a combination of PTER and QUER can contain, as excipients, those stated previously or any others that are pharmaceutically acceptable. The presentation of said compositions can be, non-limitatively, in the form of solids such as tablets, capsules, pellets, pills, etc. and liquid presentations such as drops, syrups, injectables, etc. Moreover, the active principles (PTER and QUER) of the composition can be in their uncombined forms or in the form of pharmaceutically acceptable salts, including esters. The t-PTER was synthesized in our laboratory following standardized reactions of Wittig and Heck (www.orgsyn.org), whereas the QUER was obtained from Sigma Chemical Co. (San Luis, Mo., USA). The ^3H-t-PTER (2.2 Ci/mmol), labeled in the ortho and para positions of the benzene rings, was prepared in our laboratory according to a method similar to that used for the deuteration of phenols (18). ^14C-QUER (50 mCi/mmol), labeled in position 4 of the carbon ring, was obtained from the NCI Radiochemical Carcinogen Repository of Chemsyn Laboratories (Kansas City, Mo., USA). The radioactivity was measured using a Varisette 2700 TR analyzer from Packard. Blood was collected by means of the catheter in 1-ml syringes that contained heparin sodium (0.05 ml of a 5% solution in […]). The plasma and the erythrocytes were separated as described previously (19).
To supplement the pharmacokinetics in plasma/blood, we also evaluated the bioavailability of PTER and QUER in extravascular tissues. […] Therefore, it appears that neither of the polyphenols is subject to extravascular accumulation and that their presence in various tissues (Table 2) is parallel in time to their bioavailability in the bloodstream (FIG. 1).
The animals were treated with t-PTER or QUER (20 mg/kg, containing 5 μCi of ^3H-t-PTER or 2 μCi ^14C-QUER). A group of 4-5 mice was sacrificed at each time point. Not detectable=n.d. *P<0.01 comparing the data obtained at 10-60 minutes with the data found 5 minutes after administration of the polyphenol.

[2] = Plasma levels after oral administration in mice; type: in vivo; conditions: 20 mg/kg oral
Description: The mice (C57BL/6J, male, 6-8 weeks) were from Charles River Spain (Barcelona). The procedures and animal care were based on institutional standards and complied with national and international laws and policies (Directive 86/609, OJ L 358. 1 of the Council of the European Community, of 12 Dec. 1987) and the “Guide for the Care and Use of Laboratory Animals” of the National Institutes of Health (NIH, USA) (NIH Publication No. 85-23, 1985). All the animals were fed according to concentrated laboratory diets (Letica, Barcelona, Spain) allowing them free access to food and submitting them to a cycle of 12 hours of light/12 hours of darkness with ambient temperature of 22° C. The experiments were begun at 10.00 a.m. to minimize the effects of diurnal variations.
as §1
LC-MS/MS was carried out using a Quattro Micro triple quadrupole mass spectrometer (Micromass, Manchester, UK) equipped with an LC-10Advp pump, an SLC-10Avp control system and an SIL-10Advp autoinjector from Shimadzu. The samples were analyzed by reverse-phase high-performance liquid chromatography using a Prodigy ODS column (100×2 mm) from Phenomenex (Torrance, Calif., USA), with a particle size of 3 μm. In all cases, 40 μl was injected into the column. Column temperature was maintained at 25° C. The following gradient system was used, pumped through the column at 0.2 ml/minute (min/% A/% B/% C) (A, methanol; B, 10% acetonitrile and 90% ammonium formate 10 mM pH 3.75; C, ammonium formate 10 mM pH 3.75): 0/5/5/90, 10/5/5/90, 20/5/90/5, 30/100/0/0, 40/5/5/90. The negative ion tandem mass spectra obtained by electrospray were recorded with the electrospray capillary fixed at […] and at a temperature of the source block of 120° C. Nitrogen was used as nebulizer gas and drying gas, with flows of 300 and 30 l/h, respectively. Argon at 1.5×10^−3 mbar was used as the collision gas for collision-induced dissociation. A test was carried out based on LC-MS/MS with tracking of multiple reactions using the transitions m/z 255-240 for PTER and […] for QUER, which in both cases represent favorable fragmentation routes for these deprotonated molecules. […]

SMILES	Extravascular level, Brain ([1]; 5 min)	Extravascular level, Kidney ([1]; 5 min)	Extravascular level, Liver ([1]; 5 min)	Extravascular level, Lung ([1]; 5 min)	Extravascular level, Brain ([1]; 10 min)	Extravascular level, Kidney ([1]; 10 min)	Extravascular level, Liver ([1]; 10 min)	Extravascular level, Lung ([1]; 10 min)	Extravascular level, Liver ([1]; 30 min)	Extravascular level, Lung ([1]; 30 min)	time of peak of plasma levels [2] [min]	Plasma level (total) ([2]; 5 minutes) [nM]	Plasma level, % free ([2]; 5 minutes) [% free]	Plasma level (total) ([2]; 10 minutes) [nM]	Plasma level, % free ([2]; 10 minutes)	Plasma level (total) ([2]; 30 minutes) [nM]	Plasma level, % free ([2]; 30 minutes)	Plasma level (total) ([2]; 60 minutes) [nM]	Plasma level, % free ([2]; 60 minutes)	Plasma level (total) ([2]; 120 minutes) [nM]	further results
O=c1c(O)c(-c2ccc(O)c(O)c2)oc2cc(O)cc(O)c12 [QUER, quercetin]	4 ± 1	1 ± 0.2	9 ± 3	15 ± 3	2 ± 0.4*	1 ± 0.5	3 ± 1*^	8 ± 2*	1 ± 0.2*	2 ± 0.6*	10	1600 ± 300	22 ± 6	2300 ± 700	<0.5* % free	600 ± 200	<0.5* % free	200 ± 100	<0.5* % free	70 ± 10	Plasma level, % free ([2]; 120 minutes): <0.5* % free; Plasma level (total) ([2]; 240 minutes): 50 ± 20 nM; Plasma level, % free ([2]; 240 minutes): <0.5* % free; Plasma level (total) ([2]; 480 minutes): 50 ± 20 nM; Plasma level, % free ([2]; 480 minutes): <0.5* % free; Plasma level (total) ([2]; 720 minutes): 40 ± 10 nM; Plasma level, % free ([2]; 720 minutes): <0.5* % free; free QUER as percentage of the total ([2]; except for the first 5 minutes): 0.5%; levels of total QUER in plasma ([2]; first 10 minutes): > 1000 nM
COc1cc(/C=C/c2ccc(O)cc2)cc(OC)c1 [PTER, pterostilbene]	5 ± 1	3 ± 1	14 ± 4	36 ± 6	2 ± 0.5*	3 ± 0.3	7 ± 1*	15 ± 3*	3 ± 0.5*	6 ± 1*	60	2900 ± 600	67 ± 13	6600 ± 1800	50 ± 10 % free	11100 ± 3000	35 ± 5 % free	18200 ± 2700	17 ± 6 % free	13300 ± 3400	Extravascular level, Kidney ([1]; 30 min): 2 ± 0.4*; Extravascular level, Kidney ([1]; 60 min): 1 ± 0.3*; Extravascular level, Lung ([1]; 60 min): 2 ± 1*; Plasma level, % free ([2]; 120 minutes): 15 ± 3 % free; Plasma level (total) ([2]; 240 minutes): 10600 ± 1200 nM; Plasma level, % free ([2]; 240 minutes): 16 ± 4 % free; Plasma level (total) ([2]; 480 minutes): 7100 ± 800 nM; Plasma level, % free ([2]; 480 minutes): 14 ± 4 % free; Plasma level (total) ([2]; 720 minutes): 1600 ± 500 nM; Plasma level, % free ([2]; 720 minutes): 12 ± 2 % free; free PTER as percentage of the total ([2]; between 30 and 240 minutes): 15-35%; total concentration of PTER in plasma ([2]; between 30 and 240 minutes): > 10 µM
